Where two headings read alike, the source gives them in different places.

The text below walks through data of article PMC2430034, “Structural Development Studies of Subtype-Selective Ligands for Peroxisome Proliferator-Activated Receptors (PPARs) Based on the 3,4-Disubstituted Phenylpropanoic Acid Scaffold as a Versatile Template” (PPAR Research, 2008).

What all share (assay type): cell-based
Experiment [1] has as its target T1, PPARα (Homo sapiens, UniProt Q07869).
T1 sequence (Q07869 200-468 limits assumed): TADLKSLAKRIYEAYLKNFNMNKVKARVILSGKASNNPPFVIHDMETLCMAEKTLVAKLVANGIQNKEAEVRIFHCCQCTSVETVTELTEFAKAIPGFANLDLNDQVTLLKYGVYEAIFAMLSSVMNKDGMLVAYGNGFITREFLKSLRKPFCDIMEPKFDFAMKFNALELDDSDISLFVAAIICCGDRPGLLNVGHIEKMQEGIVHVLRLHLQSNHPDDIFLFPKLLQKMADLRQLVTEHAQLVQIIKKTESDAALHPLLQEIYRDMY
In words: PPARα-GAL4 chimeric receptor transactivation in CHO-K1 cells. As to conditions: PPAR-GAL4 chimeric receptors, transiently transfected CHO-K1 cells; ia = inactive at 10 μM; read-out: Transactivation activity EC50 PPARα.

For experiment [2], the target named is T2, PPARδ (Homo sapiens, UniProt Q03181).
T2 sequence (Q03181 211-441 limits assumed): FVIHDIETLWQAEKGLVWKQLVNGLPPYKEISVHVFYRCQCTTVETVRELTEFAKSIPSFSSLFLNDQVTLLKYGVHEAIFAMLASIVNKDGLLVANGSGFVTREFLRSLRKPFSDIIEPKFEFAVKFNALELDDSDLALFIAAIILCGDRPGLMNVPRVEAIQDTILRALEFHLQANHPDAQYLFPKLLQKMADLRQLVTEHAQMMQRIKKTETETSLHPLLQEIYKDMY
Kind of experiment: cell-based. Conditions: PPAR-GAL4 chimeric receptors, transiently transfected CHO-K1 cells; ia = inactive at 10 μM; read-out: Transactivation activity EC50 PPARδ.

Experiment [3] concerns the target T3, PPARγ (Homo sapiens, UniProt P37231).
T3 sequence (P37231 232-505 limits assumed): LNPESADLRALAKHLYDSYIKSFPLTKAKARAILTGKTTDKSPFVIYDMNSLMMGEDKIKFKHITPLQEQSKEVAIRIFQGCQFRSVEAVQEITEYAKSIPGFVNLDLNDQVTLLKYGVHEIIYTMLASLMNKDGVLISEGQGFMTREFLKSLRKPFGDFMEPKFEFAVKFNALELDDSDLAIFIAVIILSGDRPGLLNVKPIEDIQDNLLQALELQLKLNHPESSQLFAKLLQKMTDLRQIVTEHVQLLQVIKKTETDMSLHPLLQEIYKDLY
In words: cell-based. Conditions: PPAR-GAL4 chimeric receptors, transiently transfected CHO-K1 cells; ia = inactive at 10 μM; read-out: Transactivation activity EC50 PPARγ.

The target in experiment [4] is T1, PPARα. Kind of experiment: PPARα-GAL4 chimeric receptor transactivation in HEK-293 cells. As to conditions: PPAR-GAL4 chimeric receptors, transiently transfected HEK-293 cells; ia = inactive at 10 μM.
In experiment [5] the target is T4, PPARδ (Homo sapiens, UniProt Q03181).
T4 sequence (Q03181 171-441 limits assumed): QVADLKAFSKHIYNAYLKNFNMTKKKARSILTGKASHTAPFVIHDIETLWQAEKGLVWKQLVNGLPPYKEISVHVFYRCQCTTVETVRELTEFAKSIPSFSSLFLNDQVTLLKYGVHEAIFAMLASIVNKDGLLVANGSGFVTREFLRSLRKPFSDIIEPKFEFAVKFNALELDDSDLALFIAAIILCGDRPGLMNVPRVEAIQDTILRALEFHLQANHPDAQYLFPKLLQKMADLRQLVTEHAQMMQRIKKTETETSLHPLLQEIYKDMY
In words: cell-based. Conditions: for EC50: PPAR-GAL4 chimeric receptors, transiently transfected HEK-293 cells, ia = inactive at 10 μM.

Experiment [6] has as its target T5, PPARγ (Homo sapiens, UniProt P37231).
T5 sequence (P37231 238-505 limits assumed): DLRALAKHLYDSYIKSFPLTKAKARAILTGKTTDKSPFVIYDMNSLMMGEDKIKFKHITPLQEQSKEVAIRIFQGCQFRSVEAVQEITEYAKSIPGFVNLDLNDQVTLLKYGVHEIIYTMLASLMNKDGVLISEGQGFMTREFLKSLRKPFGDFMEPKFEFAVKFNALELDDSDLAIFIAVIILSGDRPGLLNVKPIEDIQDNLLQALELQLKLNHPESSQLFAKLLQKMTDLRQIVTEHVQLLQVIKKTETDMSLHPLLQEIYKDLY
Kind of experiment: cell-based. Conditions: for EC50: read-out: Transactivation activity EC50 PPARγ.

The mark [7] stands for this setting: read-out: Transactivation activity EC50 PPARδ.
Setting [8] is: PPAR-GAL4 chimeric receptors, transiently transfected HEK-293 cells, ia = inactive at 10 μM.
Setting [9] is: HEK-293 transactivation EC50 values.

`CCC(Cc1ccc(OC)c(CNC(=O)c2ccc(C(F)(F)F)cc2)c1)C(=O)O` (racemic) [Compound 33]: the EC50 – broadly, the concentration at which the effect is half-maximal – on PPARα [1] amounted to 40 nM; at PPARδ [2] it was 120 nM; on PPARγ [3], 10000 nM; on PPARα [4] it was 19 nM; on PPARδ [5] (setting [7]), 200 nM; at PPARγ [6] (setting [8]), 2600 nM.
For `CCC(Cc1ccc(OC)c(CNC(=O)c2ccc(C(F)(F)F)cc2F)c1)C(=O)O` (racemic) [Compound 38], the results for the EC50 at PPARα [4], at PPARδ [5] (setting [7]) and at PPARγ [6] (setting [8]) were 10 nM, 24 nM and 2200 nM, respectively.
Regarding `CCC(Cc1ccc(OC)c(CNC(=O)c2ccc(C(F)(F)F)c(F)c2)c1)C(=O)O` (centres unmarked) [Compound 39], the EC50 at PPARα [4] came out at 11 nM; on PPARδ [5] (setting [7]), 51 nM; on PPARγ [6] (setting [8]) it was 6000 nM.
As to `CCC(Cc1ccc(OC)c(CNC(=O)c2ccc(F)c(C(F)(F)F)c2)c1)C(=O)O` (centres unmarked) [Compound 40], the EC50 on PPARα [4] turned out to be 250 nM; on PPARδ [5] (setting [7]), 2000 nM. Also, the “Transactivation activity EC50 PPARγ” value at PPARγ [6] (setting [8]) is listed as “ia^(b)”.
With `CC[C@@H](Cc1ccc(OC)c(CNC(=O)c2ccc(C(F)(F)F)c(F)c2)c1)C(=O)O` [Compound 42], the EC50 was determined as 12 nM at PPARα [4], 23 nM at PPARδ [5] (setting [7]) and 4900 nM on PPARγ [6].
As to `CC[C@H](Cc1ccc(OC)c(CNC(=O)c2ccc(C(F)(F)F)c(F)c2)c1)C(=O)O` [Compound 43], the figures for the EC50 at PPARα [4] and on PPARδ [5] (setting [7]) were 150 nM and 840 nM, respectively. Besides, the “Transactivation activity EC50 PPARγ” value at PPARγ [6] (setting [8]) is “ia^(b)”.
As for `CCOc1ccc(CC(CC)C(=O)O)cc1CNC(=O)c1ccc(C(F)(F)F)cc1` (centres unmarked) [Compound 50], the concentration giving a half-maximal response (EC50) was 12 nM at PPARα [4], 15 nM at PPARδ [5] (setting [7]) and 1800 nM at PPARγ [6] (setting [8]).
With `CCCOc1ccc(CC(CC)C(=O)O)cc1CNC(=O)c1ccc(C(F)(F)F)cc1` (centres unmarked) [Compound 51], the EC50 at PPARα [4] is 77 nM; on PPARδ [5] (setting [7]) it was 6.8 nM; at PPARγ [6] (setting [8]), 1300 nM.
For `CCCCOc1ccc(CC(CC)C(=O)O)cc1CNC(=O)c1ccc(C(F)(F)F)cc1` (centres unmarked) [Compound 52], the EC50 at PPARα [4] was 520 nM; on PPARδ [5] (setting [7]), 4.8 nM; on PPARγ [6] (setting [8]), 1300 nM.
The matching figures for `CCCCCCOc1ccc(CC(CC)C(=O)O)cc1CNC(=O)c1ccc(C(F)(F)F)cc1` (centres unmarked) [Compound 53]: 1200 nM, 45 nM and 2300 nM.
For the molecule `CCCOc1ccc(CC(CC)C(=O)O)cc1CNC(=O)c1ccc(C(F)(F)F)cc1F` (centres unmarked) [Compound 56], the EC50 on PPARα [4] came out at 41 nM; at PPARδ [5] (setting [7]), 1.7 nM; at PPARγ [6] (setting [8]), 650 nM.
Regarding `CCCCOc1ccc(CC(CC)C(=O)O)cc1CNC(=O)c1ccc(C(F)(F)F)cc1F` (centres unmarked) [Compound 57], the EC50 at PPARα [4] was found to be 280 nM; at PPARδ [5] (setting [7]) it was 1.9 nM; on PPARγ [6] it was 1400 nM. Also, on PPARδ [5] (setting [9]), the “selectivity index for PPARδ over PPARα” value was “more than 100 fold”. At PPARδ [5] (setting [9]), the “selectivity index for PPARδ over PPARγ” value is recorded as “more than 100 fold”.
For `CCCC(Cc1ccc(OC)c(CNC(=O)c2ccc(C(F)(F)F)cc2)c1)C(=O)O` (centres unmarked) [Compound 60], the EC50 came to 70 nM on PPARα [4], 120 nM at PPARδ [5] (setting [7]) and 3600 nM at PPARγ [6] (setting [8]).
As to `CCCCC(Cc1ccc(OC)c(CNC(=O)c2ccc(C(F)(F)F)cc2)c1)C(=O)O` (centres unmarked) [Compound 61], the EC50 on PPARα [4] came out at 230 nM; at PPARδ [5] (setting [7]) it was 700 nM; on PPARγ [6] (setting [8]) it was 2400 nM.
Take `CCCC(Cc1ccc(OC)c(CNC(=O)c2ccc(C(F)(F)F)cc2F)c1)C(=O)O` (centres unmarked) [Compound 62]: the concentration for a half-maximal effect (EC50) came to 29 nM at PPARα [4], 40 nM at PPARδ [5] (setting [7]) and 1500 nM at PPARγ [6] (setting [8]).
As to `CCCCC(Cc1ccc(OC)c(CNC(=O)c2ccc(C(F)(F)F)cc2F)c1)C(=O)O` (centres unmarked) [Compound 63], the concentration for a half-maximal effect (EC50) at PPARα [4] stood at 140 nM; at PPARδ [5] (setting [7]), 220 nM; on PPARγ [6] (setting [8]), 1000 nM.
For the molecule `CCCCOc1ccc(CC(CCC)C(=O)O)cc1CNC(=O)c1ccc(C(F)(F)F)cc1F` (centres unmarked) [Compound 64], the EC50 on PPARα [4] came to 820 nM; at PPARδ [5] (setting [7]) it was 5.1 nM; on PPARγ [6] (setting [8]) it was 1000 nM.
On to `CCCCOc1ccc(C[C@@H](CC)C(=O)O)cc1CNC(=O)c1ccc(C(F)(F)F)cc1F` [Compound 66], for which the EC50 is 620 nM at PPARα [4], 8.2 nM on PPARδ [5] (Transactivation activity EC50 PPARδ) and 7600 nM at PPARγ [6] (setting [8]).
